≈ marks a conversion by molar mass, not a printed value.
What was measured:
C. neoformans ATCC 34664 = assay: Antifungal susceptibility, broth dilution MIC (CLSI M27-A2); format: cell-based, Cryptococcus neoformans; conditions: Cryptococcus neoformans, ATCC34664; C. neoformans ATCC 34664; broth dilution, RPMI 1640 with MOPS, 48 hours; read-out: Activity against organisms (MIC50) Cn01
Protocol: (§1) The compounds of Formula 1 were tested for antifungal activity against Candida albicans, C. glabrata, C. krusei, C. tropicalis, Cryptococcus neoformans, Aspergillus fumigatus, A. niger and Fusarium proliferatum. In vitro evaluation of antifungal activity was performed by determining the minimum inhibitory concentration (MIC) following standard methods (CLSI: Reference method for broth dilution antifungal susceptibility testing of yeasts; Approved standard, second edition M27-A2, 2002; CLSI: Reference method for broth dilution antifungal susceptibility testing of filamentous fungi; Approved standard M38-A, 2002). Anti-fungal susceptibility testing of these anti-fungal compounds was done by broth dilution method using RPMI 1640 medium with MOPS buffer. Known anti-fungal agent fluconazole was used as positive control. End points were determined after 48 hours visually and by using spectrophotometer wherever necessary. Different dilutions were tried and various sets of experiments performed. The activity parameters are enumerated in Table 4.

C. krusei ATCC 6258 = assay: as above; format: cell-based, Candida krusei; conditions: Pichia kudriavzevii, ATCC6258; C. krusei ATCC 6258; broth dilution, RPMI 1640 with MOPS, 48 hours; read-out: Activity against organisms (MIC50) Ck01
Protocol: as §1

[1] = test system: F. proliferatum ATCC 10052; assay: Antifungal susceptibility, broth dilution MIC (CLSI M38-A); format: cell-based; conditions: Fusarium proliferatum, ATCC10052; F. proliferatum ATCC 10052; broth dilution, RPMI 1640 with MOPS, 48 hours; read-out: Activity against organisms (MIC50) Fp01
Protocol: as §1

A. fumigatus ATCC 46645 = assay: as above; format: cell-based; conditions: Aspergillus fumigatus, ATCC46645; A. fumigatus ATCC 46645; broth dilution, RPMI 1640 with MOPS, 48 hours; read-out: Activity against organisms (MIC50) Afm01
Protocol: as §1

A. niger ATCC 16404 = assay: as above; format: cell-based; conditions: Aspergillus niger, ATCC16404; A. niger ATCC 16404; broth dilution, RPMI 1640 with MOPS, 48 hours; read-out: Activity against organisms (MIC50) An01
Protocol: as §1

C. glabrata ATCC 90030 = assay: Antifungal susceptibility, broth dilution MIC (CLSI M27-A2); format: cell-based, Candida glabrata; conditions: Nakaseomyces glabratus, ATCC90030; C. glabrata ATCC 90030; broth dilution, RPMI 1640 with MOPS, 48 hours; read-out: Activity against organisms (MIC50) Cg01
Protocol: as §1

C. albicans ATCC 24433 = assay: as above; format: cell-based; conditions: Candida albicans, ATCC24433; C. albicans ATCC 24433; broth dilution, RPMI 1640 with MOPS, 48 hours; read-out: Activity against organisms (MIC50) Ca01
Protocol: as §1

C. tropicalis ATCC 750 = assay: as above; format: cell-based, Candida tropicalis; conditions: Candida tropicalis, ATCC750; C. tropicalis ATCC 750; broth dilution, RPMI 1640 with MOPS, 48 hours; read-out: Activity against organisms (MIC50) Ct01
Protocol: as §1

O=C(/C=C/c1ccc(OCc2cn(CC(O)(Cn3cncn3)c3ccc(F)cc3F)nn2)cc1)c1ccc(OCC(O)(Cn2cncn2)c2ccc(F)cc2F)cc1 (stereo not drawn) [Compound 1B-10, (E)-1-(4-(2-(2,4-Difluorophenyl)-2-hydroxy-3-(m-1,2,4-triazol-1-yl)propoxy)phenyl)-3-(4-((1-(2-(2,4-difluorophenyl)-2-hydroxy-3-(1H-1,2,4-triazol-1-yl)propyl)-1H-1,2,3-triazol-4-yl)methoxy)phenyl)prop-2-en-1-one]
MIC50 (C. neoformans ATCC 34664): 1 µg/mL (≈ 1.26 µM)
MIC50 (C. krusei ATCC 6258): 2 µg/mL (≈ 2.51 µM)
MIC50 [1]: > 2 µg/mL
MIC50 (A. fumigatus ATCC 46645): > 2 µg/mL
MIC50 (A. niger ATCC 16404): > 2 µg/mL
MIC50 (C. glabrata ATCC 90030): 0.5 µg/mL (≈ 0.628 µM)
MIC50 (C. albicans ATCC 24433): 0.25 µg/mL (≈ 0.314 µM)
MIC50 (C. tropicalis ATCC 750): 1 µg/mL (≈ 1.26 µM)

CC/C=C/c1ccc(OCc2cn(CC(O)(Cn3cncn3)c3ccc(F)cc3F)nn2)cc1 (stereo not drawn) [Compound 1C-1, (E)-1-(4-((4-(But-1-en-1-yl)phenoxy)methyl)-1H-1,2,3-triazol-1-yl)-2-(2,4-difluorophenyl)-3-(1H-1,2,4-triazol-1-yl)propan-2-ol]
MIC50 (C. neoformans ATCC 34664): 0.12 µg/mL (≈ 0.257 µM)
MIC50 (C. krusei ATCC 6258): 2 µg/mL (≈ 4.29 µM)
MIC50 [1]: > 16 µg/mL
MIC50 (A. fumigatus ATCC 46645): 8 µg/mL (≈ 17.1 µM)
MIC50 (A. niger ATCC 16404): 8 µg/mL (≈ 17.1 µM)
MIC50 (C. glabrata ATCC 90030): 0.015 µg/mL (≈ 0.0322 µM)
MIC50 (C. albicans ATCC 24433): 0.03 µg/mL (≈ 0.0643 µM)
MIC50 (C. tropicalis ATCC 750): 0.25 µg/mL (≈ 0.536 µM)

CCCC/C=C/c1ccc(OCc2cn(CC(O)(Cn3cncn3)c3ccc(F)cc3F)nn2)cc1 (stereo not drawn) [Compound 1C-2, (E)-2-(2,4-Difluorophenyl)-1-(4-((4-(n-hex-1-en-1-yl)phenoxy)methyl)-1H-1,2,3-triazol-1-yl)-3-(1H-1,2,4-triazol-1-yl)propan-2-ol]
MIC50 (C. neoformans ATCC 34664): 0.25 µg/mL (≈ 0.506 µM)
MIC50 (C. krusei ATCC 6258): 2 µg/mL (≈ 4.04 µM)
MIC50 [1]: > 4 µg/mL
MIC50 (A. fumigatus ATCC 46645): 4 µg/mL (≈ 8.09 µM)
MIC50 (A. niger ATCC 16404): 4 µg/mL (≈ 8.09 µM)
MIC50 (C. glabrata ATCC 90030): 0.06 µg/mL (≈ 0.121 µM)
MIC50 (C. albicans ATCC 24433): 0.12 µg/mL (≈ 0.243 µM)
MIC50 (C. tropicalis ATCC 750): 1 µg/mL (≈ 2.02 µM)

CCCCCCCCCC/C=C/c1ccc(OCc2cn(CC(O)(Cn3cncn3)c3ccc(F)cc3F)nn2)cc1 (stereo not drawn) [Compound 1C-3, (E)-2-(2,4-Difluorophenyl)-1-(4-((4-(n-dodec-1-en-1-yl)phenoxy)methyl)-1H-1,2,3-triazol-1-yl)-3-(1H-1,2,4-triazol-1-yl)propan-2-ol]
MIC50 (C. neoformans ATCC 34664): 0.5 µg/mL (≈ 0.864 µM)
MIC50 (C. krusei ATCC 6258): > 2 µg/mL
MIC50 [1]: > 2 µg/mL
MIC50 (A. fumigatus ATCC 46645): > 2 µg/mL
MIC50 (A. niger ATCC 16404): > 2 µg/mL
MIC50 (C. glabrata ATCC 90030): 0.12 µg/mL (≈ 0.207 µM)
MIC50 (C. albicans ATCC 24433): 1 µg/mL (≈ 1.73 µM)
MIC50 (C. tropicalis ATCC 750): > 2 µg/mL

C/C=C/c1ccc(OCc2cn(CC(O)(Cn3cncn3)c3ccc(F)cc3F)nn2)cc1 (stereo not drawn) [Compound 1C-4, (E)-2-(2,4-Difluorophenyl)-1-(4-((4-(prop-1-en-1-yl)phenoxy)methyl)-1H-1,2,3-triazol-1-yl)-3-(1H-1,2,4-triazol-1-yl)propan-2-ol]
MIC50 (C. neoformans ATCC 34664): 0.5 µg/mL (≈ 1.11 µM)
MIC50 (C. krusei ATCC 6258): 8 µg/mL (≈ 17.7 µM)
MIC50 [1]: > 32 µg/mL
MIC50 (A. fumigatus ATCC 46645): 32 µg/mL (≈ 70.7 µM)
MIC50 (A. niger ATCC 16404): 64 µg/mL (≈ 141 µM)
MIC50 (C. glabrata ATCC 90030): 0.06 µg/mL (≈ 0.133 µM)
MIC50 (C. albicans ATCC 24433): 0.03 µg/mL (≈ 0.0663 µM)
MIC50 (C. tropicalis ATCC 750): 0.12 µg/mL (≈ 0.265 µM)

OC(Cn1cncn1)(Cn1cc(COc2ccccc2)nn1)c1ccc(F)cc1F (stereo not drawn) [Compound 1D-1, 2-(2,4-Difluorophenyl)-1-(4-phenyloxymethyl-1H-1,2,3-triazol-1-yl)-3-(1H-1,2,4-triazol-1-yl)propan-2-ol]
MIC50 (C. neoformans ATCC 34664): 4 µg/mL (≈ 9.7 µM)
MIC50 (C. krusei ATCC 6258): > 128 µg/mL
MIC50 [1]: > 128 µg/mL
MIC50 (A. fumigatus ATCC 46645): > 128 µg/mL
MIC50 (A. niger ATCC 16404): > 128 µg/mL
MIC50 (C. glabrata ATCC 90030): 0.25 µg/mL (≈ 0.606 µM)
MIC50 (C. albicans ATCC 24433): 0.25 µg/mL (≈ 0.606 µM)
MIC50 (C. tropicalis ATCC 750): 2 µg/mL (≈ 4.85 µM)

O=Cc1ccc(OCc2cn(CC(O)(Cn3cncn3)c3ccc(F)cc3F)nn2)cc1 (stereo not drawn) [Compound 1D-2, 4-((1-(2-(2,4-difluorophenyl)-2-hydroxy-3-(1H-1,2,4-triazol-1-yl)propyl)-1H-1,2,3-triazol-4-yl)methoxy)benzaldehyde]
MIC50 (C. neoformans ATCC 34664): 4 µg/mL (≈ 9.08 µM)
MIC50 (C. krusei ATCC 6258): 64 µg/mL (≈ 145 µM)
MIC50 [1]: > 128 µg/mL
MIC50 (A. fumigatus ATCC 46645): > 128 µg/mL
MIC50 (A. niger ATCC 16404): > 128 µg/mL
MIC50 (C. glabrata ATCC 90030): 1 µg/mL (≈ 2.27 µM)
MIC50 (C. albicans ATCC 24433): 0.5 µg/mL (≈ 1.14 µM)
MIC50 (C. tropicalis ATCC 750): 2 µg/mL (≈ 4.54 µM)

CC(=O)c1ccc(OCc2cn(CC(O)(Cn3cncn3)c3ccc(F)cc3F)nn2)cc1 (stereo not drawn) [Compound 1D-3, 1-(4-(4-Acetylphenyloxy)methyl-1H-1,2,3-triazol-1-yl)-2-(2,4-difluorophenyl)-3-(1H-1,2,4-triazol-1-yl)propan-2-ol]
MIC50 (C. neoformans ATCC 34664): 4 µg/mL (≈ 8.8 µM)
MIC50 (C. krusei ATCC 6258): 64 µg/mL (≈ 141 µM)
MIC50 [1]: > 128 µg/mL
MIC50 (A. fumigatus ATCC 46645): > 128 µg/mL
MIC50 (A. niger ATCC 16404): > 128 µg/mL
MIC50 (C. glabrata ATCC 90030): 1 µg/mL (≈ 2.2 µM)
MIC50 (C. albicans ATCC 24433): 0.5 µg/mL (≈ 1.1 µM)
MIC50 (C. tropicalis ATCC 750): 4 µg/mL (≈ 8.8 µM)

CC(=O)Nc1ccc(OCc2cn(CC(O)(Cn3cncn3)c3ccc(F)cc3F)nn2)cc1 (stereo not drawn) [Compound 1D-4, 1-(4-(4-Acetylaminophenyloxy)methyl-1H-1,2,3-triazol-1-yl)-2-(2,4-difluorophenyl)-3-(1H-1,2,4-triazol-1-yl)propan-2-ol]
MIC50 (C. neoformans ATCC 34664): > 128 µg/mL
MIC50 (C. krusei ATCC 6258): > 128 µg/mL
MIC50 [1]: > 128 µg/mL
MIC50 (A. fumigatus ATCC 46645): > 128 µg/mL
MIC50 (A. niger ATCC 16404): > 128 µg/mL
MIC50 (C. glabrata ATCC 90030): 32 µg/mL (≈ 68.2 µM)
MIC50 (C. albicans ATCC 24433): 32 µg/mL (≈ 68.2 µM)
MIC50 (C. tropicalis ATCC 750): > 128 µg/mL
